Here are results for 17 compounds from US8030499B2, “1,3-dihydro-2H-indole-2-one compound and pyrrolidine-2-one compound fused with aromatic heterocycle” (Taisho Pharmaceutical Co., Ltd., priority 2005, dated 2011).

Experiment [1] has as its target T1, human V2 receptor (Homo sapiens, UniProt P30518).
T1 construct: expressed in transfected cells; host or cells: 293FT cells
Put plainly: V2 receptor binding assay ([3H](Arg8)-vasopressin, crude membranes of 293FT cells). The conditions noted are these: receptor binding test, human V2, 293FT cell membranes. The method, then:
(§1) A summary of the methods is given below.
(§2) Each obtained homogenate was centrifuged for 20 minutes at 50,000×g and 4° C., the sediment was resuspended in a 50 mmol/L Tris hydrochloric acid buffer solution (pH7.4, containing 10 mmol/L magnesium chloride and 0.1% bovine serum albumin), which served as a crude membrane preparation. This crude membrane preparation was added with [^3H] (Arg^8) vasopressin (final concentration: 0.1 nmol/L to 0.4 nmol/L), and each test drug (final concentration: 0.1 nmol/L to lμmol/L or 0.01 nmol/L to 0.1 μmol/L) to 22° C. for 90 minutes. After the end of the reaction, the reaction solution was filtrated using a GF/C glass fiber filter, which had been presoaked in 0.3% polyethyleneimine for two hours. After the GF/C glass fiber filter was dried sufficiently, scintillator was added, and the radioactivity on the filter was measured using a liquid scintillation counter. Binding of [^3H] (Arg^8)-vasopressin in the presence of (Arg^8)-vasopressin, in the amounts of 0.1 μmol/L in the V1b receptor binding assay and 5 μmol/L in the V1a and V2 receptor binding assay, were taken as non-specific binding, and the value obtained by subtracting non-specific binding from the total binding in the absence (Arg^8)-vasopressin served as specific binding.

Experiment [2] addresses T2, human V1b receptor (Homo sapiens, UniProt P47901).
T2 construct: expressed in transfected cells; host or cells: CHO cells
T2 sequence (P47901 1-424): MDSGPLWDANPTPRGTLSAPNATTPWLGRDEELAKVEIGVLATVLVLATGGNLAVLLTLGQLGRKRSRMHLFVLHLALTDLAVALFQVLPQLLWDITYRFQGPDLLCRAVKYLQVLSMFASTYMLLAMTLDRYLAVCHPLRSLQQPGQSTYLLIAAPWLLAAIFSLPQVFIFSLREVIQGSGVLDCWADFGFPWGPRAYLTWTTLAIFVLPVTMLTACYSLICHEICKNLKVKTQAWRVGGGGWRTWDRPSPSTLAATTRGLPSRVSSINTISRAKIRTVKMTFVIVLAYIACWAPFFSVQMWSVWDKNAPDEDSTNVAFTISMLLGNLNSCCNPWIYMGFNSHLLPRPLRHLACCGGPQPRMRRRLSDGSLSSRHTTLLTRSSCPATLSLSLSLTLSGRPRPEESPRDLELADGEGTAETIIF
Put plainly: V1b receptor binding assay ([3H](Arg8)-vasopressin, crude membranes of CHO cells). Particulars: receptor binding test, human V1b, CHO cell membranes. The method, then:
as §1, §2
In addition, regarding the V1b receptor binding assay, the value obtained by, subtracting the amount of binding in the presence of 0.1 μmol/L test drug from the total amount of binding, divided by the amount of specific binding, served as the rate of inhibition (% of inhibition) of the test drug at the concentration tested.

Experiment [3] addresses T3, human V1a receptor (Homo sapiens, UniProt P37288).
T3 construct: expressed in transfected cells; host or cells: 293FT cells
Put plainly: V1a receptor binding assay ([3H](Arg8)-vasopressin, crude membranes of 293FT cells). The conditions noted are these: receptor binding test, 293FT cell membranes. The method, then: as §1, §2

T3 sequence (P37288 whole entry): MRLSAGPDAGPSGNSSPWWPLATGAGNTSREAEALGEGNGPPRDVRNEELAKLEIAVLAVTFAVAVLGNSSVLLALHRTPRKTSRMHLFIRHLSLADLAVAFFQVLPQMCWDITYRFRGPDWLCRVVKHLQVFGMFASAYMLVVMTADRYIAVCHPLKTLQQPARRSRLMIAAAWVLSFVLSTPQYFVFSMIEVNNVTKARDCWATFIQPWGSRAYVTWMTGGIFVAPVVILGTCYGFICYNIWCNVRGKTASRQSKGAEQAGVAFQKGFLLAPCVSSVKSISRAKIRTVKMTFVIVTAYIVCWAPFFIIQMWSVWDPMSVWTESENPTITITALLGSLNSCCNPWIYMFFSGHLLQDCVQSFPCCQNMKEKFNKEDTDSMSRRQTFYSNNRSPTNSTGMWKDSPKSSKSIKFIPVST
T1 sequence (P30518 whole entry): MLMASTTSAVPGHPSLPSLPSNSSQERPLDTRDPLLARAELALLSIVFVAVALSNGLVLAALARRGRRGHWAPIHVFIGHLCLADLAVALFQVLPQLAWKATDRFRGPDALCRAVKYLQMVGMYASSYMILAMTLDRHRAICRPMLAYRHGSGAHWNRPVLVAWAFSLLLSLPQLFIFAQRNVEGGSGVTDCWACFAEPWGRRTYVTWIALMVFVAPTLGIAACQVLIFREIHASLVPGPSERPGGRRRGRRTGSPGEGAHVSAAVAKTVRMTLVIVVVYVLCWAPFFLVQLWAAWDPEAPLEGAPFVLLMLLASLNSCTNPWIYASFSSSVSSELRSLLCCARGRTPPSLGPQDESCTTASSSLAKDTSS

The IC50 is the concentration that gives 50% inhibition. The low end stands for greater potency in that assay, the high end for weaker potency in that assay. For `COc1ccc(S(=O)(=O)N2C(=O)C(c3cc(CCO)ccc3OC)(N3C[C@H](O)C[C@H]3C(=O)N(C)C)c3cc(Cl)ccc32)c(OC(F)(F)F)c1` (single isomer, unassigned) [Example 217], the figures for the IC50 in experiment [1], in experiment [2] and in experiment [3] were 3100 nM, 0.96 nM and 404 nM, respectively.
Taken in the same sequence, the figures for `COc1ccc(S(=O)(=O)N2C(=O)C(c3cc(C)ccc3OC)(N3C[C@H](OCCCN(C)C)C[C@H]3C(=O)N(C)C)c3cc(Cl)ccc32)c(OC(F)(F)F)c1` (single isomer, unassigned) [Example 140] were 3190 nM, 1.1 nM and 355 nM.
The like results for `COc1ccc(S(=O)(=O)N2C(=O)C(c3ccccc3OC)(N3Cc4ccccc4C[C@H]3C(=O)N(C)C)c3cc(Cl)ccc32)c(OC(F)(F)F)c1` (single isomer, unassigned) [Example 38 A] were, in that order, above 10000 nM, 31 nM and above 10000 nM.
Taken in the same sequence, the figures for `COc1ccc(S(=O)(=O)N2C(=O)C(c3ccccc3OC)(N3CCCC[C@H]3C(=O)N(C)C)c3cc(Cl)ccc32)c(OC(F)(F)F)c1` (single isomer, unassigned) [Example 31] were above 10000 nM, 5.2 nM and 953 nM.
As for `COc1ccc(S(=O)(=O)N2C(=O)C(c3ccccc3OC)(N3CCOC[C@H]3C(=O)N(C)C)c3cc(Cl)ccc32)c(OC(F)(F)F)c1` (single isomer, unassigned) [Example 41], the half-maximal inhibitory concentration (IC50) is above 10000 nM in experiment [1], 7.1 nM in experiment [2] and 3760 nM in experiment [3].
With `COc1ccc(S(=O)(=O)N2C(=O)C(c3cc(C)ccc3OC)(N3C[C@H](O)C[C@H]3C(=O)N(C)C)c3cc(Cl)ccc32)c(OC(F)(F)F)c1` (single isomer, unassigned) [Example 103], the IC50 in experiment [1] worked out at 3370 nM; in experiment [2] it was 2.3 nM; in experiment [3] it was 504 nM.
The like results for `COc1ccc(S(=O)(=O)N2C(=O)C(c3ccccc3OC)(N3CCC[C@H]3C(=O)N(C)C)c3cc(Cl)ccc32)c(OC(F)(F)F)c1` (single isomer, unassigned) [Example 5, 1-(5-chloro-3-(2-methoxyphenyl)-1-{[4-methoxy-2-(trifluoromethoxy)phenyl]sulfonyl}-2-oxo-2,3-dihydro-1H-indol-3-yl)-N,N-dimethyl-L-prolinamide] were, in that order, above 10000 nM, 16 nM and 2180 nM.
The like results for `COc1ccc(S(=O)(=O)N2C(=O)C(c3cc(C)ccc3OC)(N3C[C@H](O)C[C@H]3C(=O)N(C)C)c3cc(C#N)ccc32)c(OC(F)(F)F)c1` (single isomer, unassigned) [Example 126] were, in that order, above 10000 nM, 15 nM and 8240 nM.
The like results for `COc1ccc(S(=O)(=O)N2C(=O)C(c3cc(C)ccc3OC)(N3CCCC[C@H]3C(=O)N(C)C)c3cc(Cl)ccc32)c(OC(F)(F)F)c1` (single isomer, unassigned) [Example 116] were, in that order, above 10000 nM, 2.9 nM and 653 nM.
For `COc1ccc(S(=O)(=O)N2C(=O)C(c3cc(C)ccc3OC)(N3C[C@H](OCC(N)=O)C[C@H]3C(=O)N(C)C)c3cc(Cl)ccc32)c(OC(F)(F)F)c1` (single isomer, unassigned) [Example 147], the results for the IC50 in experiment [1], in experiment [2] and in experiment [3] were 5650 nM, 1.2 nM and 1110 nM, respectively.
Regarding `COc1ccc(S(=O)(=O)N2C(=O)C(c3ccccc3OC)(N(C)[C@@H](C)C(=O)N(C)C)c3cc(Cl)ccc32)c(OC(F)(F)F)c1` (single isomer, unassigned) [Example 71], the concentration for half-maximal inhibition (IC50) in experiment [1] is above 10000 nM; in experiment [2] it was 6.3 nM; in experiment [3], 4050 nM.
The like results for `COc1ccc(S(=O)(=O)N2C(=O)C(c3cc(C)ccc3OC)(N3C[C@H](O)C[C@H]3C(=O)N(C)C)c3cc(Br)cnc32)c(OC(F)(F)F)c1` (single isomer, unassigned) [Example 120] were, in that order, above 10000 nM, 11 nM and 6790 nM.
The like results for `COc1ccc(S(=O)(=O)N2C(=O)C(c3cc(-c4ccncc4)ccc3OC)(N3C[C@H](O)C[C@H]3C(=O)N(C)C)c3cc(Cl)ccc32)c(OC(F)(F)F)c1` (single isomer, unassigned) [Example 192] were, in that order, above 10000 nM, 4.3 nM and 792 nM.
Taken in the same sequence, the figures for `COc1ccc(S(=O)(=O)N2C(=O)C(O[C@@H](C)C(=O)N(C)C)(c3ccccc3OC)c3cc(Cl)ccc32)c(OC(F)(F)F)c1` (single isomer, unassigned) [Example 81] were above 10000 nM, 18 nM and 677 nM.
As for `COc1ccc(S(=O)(=O)N2C(=O)C(c3cc(CCN4CCCCC4)ccc3OC)(N3C[C@H](O)C[C@H]3C(=O)N(C)C)c3cc(Cl)ccc32)c(OC(F)(F)F)c1` (single isomer, unassigned) [Example 225], the half-maximal inhibitory concentration (IC50) in experiment [1] was 5050 nM; in experiment [2], 0.32 nM; in experiment [3], 101 nM.
Taken in the same sequence, the figures for `COc1ccc(S(=O)(=O)N2C(=O)C(c3cccnc3OC)(N3C[C@H](O)C[C@H]3C(=O)N(C)C)c3cc(Cl)ccc32)c(OC(F)F)c1` (single isomer, unassigned) [Example 170] were 4050 nM, 0.56 nM and 65.1 nM.
For `COc1ccc(S(=O)(=O)N2C(=O)C(c3cc(N4CCOCC4)ccc3OC)(N3C[C@H](O)C[C@H]3C(=O)N(C)C)c3cc(Cl)ccc32)c(OC(F)(F)F)c1` (single isomer, unassigned) [Example 191], the half-maximal inhibitory concentration (IC50) is 3340 nM in experiment [1], 1.8 nM in experiment [2] and 293 nM in experiment [3].
